In article PMC6324813, “Biological evaluation of isoflavonoids from Genista halacsyi using estrogen-target cells: Activities of glucosides compared to aglycones” (PLoS ONE, 2019):

Legend:
ERβ [1] = target: T1, ERβ (Homo sapiens, UniProt Q92731); set-up: purchased Invitrogen; conditions: cited from earlier work
ERα [2] = target: T2, ERα (Homo sapiens, UniProt P03372); set-up: purchased Invitrogen; conditions: cited from earlier work
T2 sequence (P03372 1-595): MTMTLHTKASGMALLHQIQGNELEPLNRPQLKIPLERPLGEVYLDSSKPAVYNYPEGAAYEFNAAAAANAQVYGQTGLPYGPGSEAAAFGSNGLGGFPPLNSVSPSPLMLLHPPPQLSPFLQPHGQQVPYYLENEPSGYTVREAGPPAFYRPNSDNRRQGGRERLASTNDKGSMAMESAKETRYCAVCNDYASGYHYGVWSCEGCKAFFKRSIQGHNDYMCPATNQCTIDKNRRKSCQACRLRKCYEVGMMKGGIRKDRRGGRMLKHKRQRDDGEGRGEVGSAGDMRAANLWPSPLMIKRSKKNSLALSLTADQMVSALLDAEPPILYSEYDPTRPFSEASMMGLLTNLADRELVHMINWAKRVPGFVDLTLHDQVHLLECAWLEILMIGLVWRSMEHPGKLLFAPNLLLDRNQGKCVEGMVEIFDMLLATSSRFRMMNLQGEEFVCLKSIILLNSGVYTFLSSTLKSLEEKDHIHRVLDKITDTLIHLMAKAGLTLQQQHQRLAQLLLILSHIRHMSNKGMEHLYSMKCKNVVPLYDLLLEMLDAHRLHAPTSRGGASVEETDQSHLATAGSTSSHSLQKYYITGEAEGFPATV

ERβ [3] = target: T1, ERβ; assay: ER binding competitor assay (fluorescent estrogen ES2), ERβ; set-up: purchased Invitrogen
HT22 cells = assay: Glutamate toxicity (oxytosis) of HT22 neuronal cells (MTT); conditions: 1 nM estradiol or 1 μM compound; for viability of HT22 cells under normal growth conditions compared to vehicle-treated cells: no glutamate; for viability of glutamate-treated HT22 cells (% of glutamate-free cells): 5 mM glutamate 24 h
Protocol: Glutamate-challenged HT22 cells suffer oxidative stress-induced cell death (oxytosis) within 24 h due to glutathione depletion and consequent massive accumulation of ROS [42]. The efficacy of test compounds to prevent oxytosis of HT22 cells was assessed as already described. Briefly, HT22 cells were plated in 96-well flat bottom plates at a density of 4,000 cells per well in 100 μl of DMEM (low glucose) containing 2% FBS. 24 h after plating, the cells were treated with test compounds or compound diluent (0.1% DMSO) and then challenged with 5 mM glutamate for 24 h. […] Non-challenged cells served to assess test compound effects on cell viability, whereas challenged cells served to assess the neuroprotective activity of test compounds.

MC3T3-E1 cells = assay: Mineralization of MC3T3-E1 cells, Alizarin red staining; type: cell-based, mouse; conditions: DF + E2 1 nM or compound 1 μM; 21 days; DF plus vehicle = 100
Protocol: Differentiation of MC3T3-E1 cells to osteoblasts has been extensively used to screen for compounds that may promote bone formation. Differentiation of MC3T3-E1 cells was carried out in 96-well plates using 3,300 cells per well and was assessed via induction of, i) Alkaline Phosphatase (AlkP) activity after 6 days of treatment and, ii) mineralization of extracellular matrix after 21 days of treatment. Briefly, 24 h after plating, the cells were incubated with test compounds or vehicle i.e. the compound diluent (0.1% DMSO) and then exposed for 6 days to differentiation medium in presence or absence of differentiation factors (cf. Cell culture) with a change to fresh compounds and medium in 3 days. AlkP activity was assessed at 405 nm in a Safire II microplate reader using as substrate p-nitrophenyl-phosphate (pNPP, Sigma-Aldrich) as already described. Mineralization of MC3T3 cells was assessed by staining with Alizarin red (Fluka). Cells were cultured and treated as described above for 21 days, with media and test compounds changed every 3 days, and calcium phosphate deposition was assayed as described by Gregory et al.. Briefly, the cells were washed twice with PBS and fixed with 70% ethanol for 15 min on ice. The cells were stained with Alizarin red solution (40 mM, pH 4.2) for 30 min at room temperature, washed twice with distilled water and once with PBS. The dye from the stained mineral deposits was extracted with 33% acetic acid and the absorbance was measured at 405 nm using a Safire II microplate reader (Tecan).

ERα [4] = target: T2, ERα; assay: ERE-dependent luciferase gene transcription in MCF-7:D5L cells; type: cell-based; set-up: MCF-7:D5L cells, a clone of MCF-7 cells stably transfected with an Estrogen Response Element (ERE)-endowed reporter plasmid; endogenous in cells; host or cells: MCF-7:D5L (MCF-7 clone carrying pERE-Gl-Luciferase)
Protocol: Assessment of ER/ERE-dependent luciferase gene transcription in MCF-7:D5L (express ERα) and HEK:ERβ cells (express ERβ) and determination of ER transcriptional agonism was carried as already described. Briefly, the cells were plated in 96-well plates at a density of 12,000 cells per well in phenol-red-free MEM (MCF-7:D5L cells) or phenol-red-free DMEM (HEK:ERβ cells) supplemented with 1 μg/mL insulin and 5% DCC-FBS. […] The AUC of the isoflavonoids of each group were then expressed as % of the AUC of the respective archetypal isoflavone. Since AUC data combine the efficacy as well as the potency of cell response into a single parameter, the %AUC data were considered here as a more reliable measure of relative ER/ERE-dependent luciferase expression of the test compounds.

T1 sequence (Q92731 whole entry): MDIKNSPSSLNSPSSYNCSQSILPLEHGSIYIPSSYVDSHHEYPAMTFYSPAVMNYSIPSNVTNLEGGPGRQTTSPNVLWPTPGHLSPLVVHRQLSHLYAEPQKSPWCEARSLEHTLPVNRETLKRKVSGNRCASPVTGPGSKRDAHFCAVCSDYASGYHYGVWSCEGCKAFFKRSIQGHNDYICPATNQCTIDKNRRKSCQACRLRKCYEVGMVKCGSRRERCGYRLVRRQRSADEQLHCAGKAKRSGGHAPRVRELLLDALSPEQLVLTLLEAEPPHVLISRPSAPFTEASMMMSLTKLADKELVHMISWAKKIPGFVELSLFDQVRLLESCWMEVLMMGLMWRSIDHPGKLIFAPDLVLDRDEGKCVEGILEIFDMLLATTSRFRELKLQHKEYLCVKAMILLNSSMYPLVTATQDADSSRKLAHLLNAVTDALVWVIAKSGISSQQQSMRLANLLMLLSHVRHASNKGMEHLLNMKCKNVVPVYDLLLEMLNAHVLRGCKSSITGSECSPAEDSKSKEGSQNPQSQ

| SMILES | mean value (and the range) of previously reported RBAβ (ERβ [1]) | mean value (and the range) of previously reported RBAα (ERα [2]) | RBAβ / RBAα (ERβ [3]; ERβ-binding selectivity) | RBAβ (ERβ [3]; RBA = (IC50 estradiol/IC50 compound) × 100, ES2 1 nM, estradiol set equal to 100) | viability of HT22 cells under normal growth conditions compared to vehicle-treated cells (HT22 cells) | viability of glutamate-treated HT22 cells (% of glutamate-free cells) (HT22 cells) [%] | Differentiation of MC3T3-E1 cells, Alizarin red staining (%) (MC3T3-E1 cells) | Induction of ERE-dependent Luciferase Transcription (MCF-7:D5L cells) AUC (%) (ERα [4]; % of AUC of luciferase response of archetypal 3, 4, 5 or 8 up to 0.3, 10, 1.0 and 3.0 μM) | Induction of luciferase gene transcription through ERα, MCF-7:D5L cells, Agonism at 1μΜ (% of 0.1nM E2) (ERα [4]; compounds 1 μM, estradiol 0.1 nM, 18 h) | Induction of ERE-dependent Luciferase Transcription (MCF-7:D5L cells) EC25E2 (ERα [4]; concentration required to achieve 25% of the effect of 0.1 nM E2) [nM] | EC50 (ERα [4]; concentration required to achieve 50% of the effect of 0.1 nM E2, read-out: Induction of ERE-dependent Luciferase Transcription (MCF-7:D5L cells) EC50E2) [nM] | ERα-dependent gene transcription agonist effect compared to the effect of 0.1 nM estradiol (ERα [4]; isoflavonoids 1 μM, statistically significant effects) |
| --- | --- | --- | --- | --- | --- | --- | --- | --- | --- | --- | --- | --- |
| O=c1c(-c2ccc(O)cc2)coc2cc(O[C@@H]3O[C@H](CO)[C@@H](O)[C@H](O)[C@H]3O)cc(O)c12 [Compound 12, 7-O-β-D-glucopyranosyl-genistein] | < 0.01 | < 0.01 | 1.75 | 0.07 ± 0.02 | not different | ≤ 40 | 137±14 |  |  |  |  |  |
| O=c1c(-c2ccc(OC3O[C@H](CO)[C@@H](O)[C@H](O)[C@H]3O)cc2)coc2cc(OC3O[C@H](CO)[C@@H](O)[C@H](O)[C@H]3O)cc(O)c12 (stereo partly drawn) [Compound 11, 7,4΄-di-O-glucopyranosylgenistein] |  |  |  |  | not different | ≤ 40 | 120±5 | 75±6 | 114 ± 4 (Full) % of 0.1nM E2 | 40 ± 10 | 150 ± 30 | very similar to estradiol |
